Data reported in ChEMBL document CHEMBL1201862, “PubChem BioAssay data set” (2004).
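All cell lines were grown in 96-well plates and treated with compound for 48 hours. GI50 = concentration required for 50% inhibition of growth.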 The source made the active and inactive calls. Cut-off read from the data, not from the text of the source: active = GI50 up to about 1.1 µM and inactive = higher.

Columns and labels:
Assay in all cases: inhibition of tumour cell growth, NCI panel, 48 h
U-251 = tested on: U-251
MDA-MB-435 = tested on: MDA-MB-435
EKVX = tested on: EKVX
Hs-578T = tested on: Hs-578T
DMS-273 = tested on: DMS-273
SW-620 = tested on: SW-620
NCI-H460 = tested on: NCI-H460
DU-145 = tested on: DU-145
SK-MEL-5 = tested on: SK-MEL-5
HT-29 = tested on: HT-29
RXF 393 = tested on: RXF 393
HCC 2998 = tested on: HCC 2998
NCI-H226 = tested on: NCI-H226
IGROV-1 = tested on: IGROV-1
NCI-H522 = tested on: NCI-H522
SNB-19 = tested on: SNB-19
OVCAR-8 = tested on: OVCAR-8
NCI-H23 = tested on: NCI-H23
RPMI-8226 = tested on: RPMI-8226
SK-OV-3 = tested on: SK-OV-3

| Structure (SMILES) | GI50 (U-251) | GI50 (MDA-MB-435) | GI50 (EKVX) | GI50 (Hs-578T) | GI50 (DMS-273) | GI50 (SW-620) | GI50 (NCI-H460) | GI50 (DU-145) | GI50 (SK-MEL-5) | GI50 (HT-29) | GI50 (RXF 393) | GI50 (HCC 2998) | GI50 (NCI-H226) | GI50 (IGROV-1) | GI50 (NCI-H522) | GI50 (SNB-19) | GI50 (OVCAR-8) | GI50 (NCI-H23) | GI50 (RPMI-8226) | GI50 (SK-OV-3) |
| --- | --- | --- | --- | --- | --- | --- | --- | --- | --- | --- | --- | --- | --- | --- | --- | --- | --- | --- | --- | --- |
| CCN(CC)CCC(=O)N1C/C(=C/c2ccccc2)C(=O)/C(=C\c2ccccc2)C1 | 762 nM (active) | 1700 nM (inactive) | 3420 nM (inactive) | < 10 nM (active) | 1420 nM (inactive) | 195 nM (active) | 3240 nM (inactive) | 3150 nM (inactive) | 1760 nM (inactive) | 811 nM (active) | 1510 nM (inactive) | 706 nM (active) | 5320 nM (inactive) | 3030 nM (inactive) | 746 nM (active) | 2200 nM (inactive) | 1350 nM (inactive) | 1420 nM (inactive) | 114 nM (active) | 8570 nM (inactive) |
| COc1cc(NCc2ccc3nc(N)nc(N)c3c2C)cc(OC)c1OC | 37.9 nM (active) | 36.5 nM (active) | – | 99.3 nM (active) | 25 nM (active) | 25 nM (active) | 25 nM (active) | 1.02 nM (active) | 28.9 nM (active) | 26.7 nM (active) | 2150 nM (inactive) | 109 nM (active) | 11400 nM (inactive) | 31.6 nM (active) | – | 59.7 nM (active) | 26.2 nM (active) | 45.3 nM (active) | 56.2 nM (active) | 2840 nM (inactive) |
| CCCCCCCCCCCCC(CC)CCCCC(=O)O (configuration not stated) | > 47600 nM (inactive) | – | > 56200 nM (inactive) | – | > 100000 nM (inactive) | > 61200 nM (inactive) | > 62400 nM (inactive) | – | > 100000 nM (inactive) | > 65600 nM (inactive) | > 60000 nM (inactive) | > 100000 nM (inactive) | > 100000 nM (inactive) | > 100000 nM (inactive) | > 100000 nM (inactive) | > 100000 nM (inactive) | > 100000 nM (inactive) | > 78700 nM (inactive) | > 56400 nM (inactive) | > 100000 nM (inactive) |
| COC1=CC(=O)c2c(O)c3c(c(O)c2C1=O)C=C(C)OC3O (configuration not stated) | 2480 nM (inactive) | 1250 nM (inactive) | 7350 nM (inactive) | 2640 nM (inactive) | 1010 nM (active) | 828 nM (active) | 1350 nM (inactive) | 1010 nM (active) | 269 nM (active) | 541 nM (active) | 1050 nM (active) | 1560 nM (inactive) | 2900 nM (inactive) | 1980 nM (inactive) | 1450 nM (inactive) | 2480 nM (inactive) | 849 nM (active) | 838 nM (active) | 1500 nM (inactive) | 8450 nM (inactive) |
| CCCCCCCCCC[S+]([O-])CC(CO)NC(=O)/C=C/c1c(C)nc(O)nc1O (configuration not stated) | 132 nM (active) | 14000 nM (inactive) | 774 nM (active) | – | 370 nM (active) | 535 nM (active) | – | 43400 nM (inactive) | 918 nM (active) | 1360 nM (inactive) | 474 nM (active) | 244 nM (active) | 800 nM (active) | 959 nM (active) | 93.8 nM (active) | – | – | 504 nM (active) | 1040 nM (active) | 1380 nM (inactive) |
| COc1cc2c(c(OC)c1OC)-c1ccc(SC)c(=O)cc1[C@@H](NCc1cccc(C#N)c1)CC2 | 17.8 nM (active) | – | 97.3 nM (active) | – | 6.47 nM (active) | 13.2 nM (active) | 26.8 nM (active) | – | 6.93 nM (active) | 15.4 nM (active) | 4.08 nM (active) | 19.8 nM (active) | 22.6 nM (active) | 57 nM (active) | 14.2 nM (active) | 45 nM (active) | 22.2 nM (active) | 17.9 nM (active) | 34.5 nM (active) | 11.5 nM (active) |
| CCOC(=O)c1nc(-c2ccccc2)oc1OCC | > 100000 nM (inactive) | – | 21000 nM (inactive) | – | 90200 nM (inactive) | > 100000 nM (inactive) | > 100000 nM (inactive) | – | > 100000 nM (inactive) | > 100000 nM (inactive) | > 100000 nM (inactive) | > 100000 nM (inactive) | > 100000 nM (inactive) | > 100000 nM (inactive) | > 100000 nM (inactive) | > 100000 nM (inactive) | > 100000 nM (inactive) | > 100000 nM (inactive) | 92700 nM (inactive) | > 100000 nM (inactive) |
| COc1ccc(C(=C[N+](=O)[O-])c2ccc(OC)cc2)cc1 | 11300 nM (inactive) | – | 42300 nM (inactive) | – | 2740 nM (inactive) | 4020 nM (inactive) | 10700 nM (inactive) | – | 28600 nM (inactive) | 4520 nM (inactive) | 12300 nM (inactive) | 11400 nM (inactive) | 24300 nM (inactive) | 9420 nM (inactive) | 4450 nM (inactive) | 22200 nM (inactive) | 13000 nM (inactive) | 12700 nM (inactive) | 3840 nM (inactive) | 14300 nM (inactive) |
